Source: patent EP0363353B1, “FUSED BENZAZEPINES” (SCHERING CORPORATION, priority 1987, dated 1989)

Assays:
dopamine D-1 receptor = biological target: T1, dopamine D-1 receptor (Rattus norvegicus, UniProt P18901); experiment: Competitive inhibition assay, displacement of 3H-SCH 23390; assay type: binding
T1 construct: Striatal tissue was excised, pooled, and homogenized; from tissue; host or cells: rat striatum (Sprague-Dawley), washed membrane pellet
From the text: (§1) A methodology for characterization of D-1 and D-2 receptor binding and an interpretation of the data are described by Billard et al., Life Sciences 35, 1885 (1984) in which the binding of the benzazepine (R)-(+)-8-chioro-2,3,4,5-tetrahydro-3-methyi-5-phenyi-1H-3-benzazepin-7-oi hemimaleate (SCH 23390) to the dopamine D-1 receptor is characterized. A selectivity for D-1 receptor binding as compared to D-2 receptor binding is believed to confer the therapeutic advantage of avoiding troublesome and potentially irreversible neurological side effects associated with D-2 receptor occupancy. […]
(§2) Polypropylene incubation tubes received 100 µl of the individual test compounds at various concentrations dissolved or suspended in 0.05 M Tris, pH 7.4 containing 4 mg/ml methylcellulose, 100 µl of a solution of^3H-SCH 23390 in Tris buffer (final reaction mixture concentration =0.3 nM) or 100 µl of a solution of ^3H-spiperone in Tris buffer (final concentration = 0.2 nM) and 800 µl of tissue suspension (ca. 3 mg/assay). […] The filters were-transferred to scintillation vials, equilibated with 10 ml of scintillant (Scintosol, Isolab, Inc.) for 16 hours at 25°C and the radioactivity determined in a liquid scintillation counter. […]

D-2 receptor = biological target: T2, D-2 receptor (Rattus norvegicus, UniProt P61169); experiment: Competitive inhibition assay, displacement of 3H-spiperone; assay type: binding; settings: 3H-spiperone 0.2 nM; rat striatal tissue homogenate; 37°C for 15 minutes
T2 construct: Striatal tissue was excised, pooled, and homogenized; from tissue; host or cells: rat striatum (Sprague-Dawley), washed membrane pellet
T2 sequence (P61169 whole entry): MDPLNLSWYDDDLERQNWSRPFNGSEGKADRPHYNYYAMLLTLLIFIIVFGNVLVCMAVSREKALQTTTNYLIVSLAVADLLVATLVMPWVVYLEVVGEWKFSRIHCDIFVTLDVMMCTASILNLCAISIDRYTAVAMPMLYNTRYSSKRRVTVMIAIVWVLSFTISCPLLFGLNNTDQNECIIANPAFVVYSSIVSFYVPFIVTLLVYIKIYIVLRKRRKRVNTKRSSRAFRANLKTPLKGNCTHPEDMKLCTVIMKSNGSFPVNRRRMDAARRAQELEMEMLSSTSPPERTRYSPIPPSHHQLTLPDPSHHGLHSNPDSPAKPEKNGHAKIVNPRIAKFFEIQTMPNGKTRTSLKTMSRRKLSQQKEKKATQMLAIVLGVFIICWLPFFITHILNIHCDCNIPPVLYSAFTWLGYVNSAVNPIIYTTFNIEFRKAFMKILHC
From the text: as §1, §2

T1 sequence (P18901 whole entry): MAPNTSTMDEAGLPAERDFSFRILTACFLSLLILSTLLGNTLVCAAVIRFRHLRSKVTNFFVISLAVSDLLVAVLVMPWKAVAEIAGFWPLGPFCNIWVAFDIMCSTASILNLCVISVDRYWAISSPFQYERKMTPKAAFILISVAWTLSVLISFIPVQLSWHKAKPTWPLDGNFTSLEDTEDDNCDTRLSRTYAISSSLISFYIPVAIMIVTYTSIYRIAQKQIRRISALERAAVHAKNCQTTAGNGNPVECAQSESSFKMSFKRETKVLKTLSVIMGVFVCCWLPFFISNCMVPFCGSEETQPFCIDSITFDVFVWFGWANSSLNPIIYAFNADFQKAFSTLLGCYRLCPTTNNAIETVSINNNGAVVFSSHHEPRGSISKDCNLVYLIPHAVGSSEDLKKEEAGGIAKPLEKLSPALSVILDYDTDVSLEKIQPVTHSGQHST

| SMILES | Ki (dopamine D-1 receptor) | Ki (D-2 receptor) |
| --- | --- | --- |
| Oc1cc2c(cc1Cl)CCN[C@H]1Cc3ccccc3[C@H]21 (racemic) | 7 nM | 1580 nM |
| CN1CCc2cc(Cl)c(O)cc2[C@H]2c3ccccc3C[C@@H]21 (racemic) [Trans-6-methyl-5,6,7,7a,8,12b-hexahydro-2-hydroxy-3-chloro-benz[d]indeno-[2,1-b]azepine] | 7 nM | 12000 nM |
